{"source": "patent US11149030B2", "about": "“Plants having increased tolerance to herbicides” (BASF AGRO B.V., priority 2016, dated 2021)", "test_system": "transgenic T2 Arabidopsis plants", "test": "Greenhouse spray of transgenic T2 Arabidopsis plants, herbicide injury 0 to 100% phytotox rating (Table A)", "assay_type": "in vivo", "settings": "14 days after treatment", "procedure": "Additionally, transgenic T2 Arabidopsis plants are tested for improved tolerance to herbicides in greenhouse studies with the following herbicides: methyl 2-[2-chloro-5-[3-chloro-5-(trifluoromethyl)-2-pyridyl]-4-fluoro-phenoxy]-2-methoxy-acetate, and photosynthesis inhibitor diuron as negative control.\nTable A: Transgenic T2 Arabidopsis plants, four weeks old, were sprayed in the greenhouse with the indicated amount of compound+1% (v/v) MSO. Herbicide injury was evaluated 14 days after treatment with a 0 to 100% phytotox rating scale where 0 is no injury relative to an unsprayed wild type check and 100% is completely dead."}
{"smiles": "COC(=O)C(OC)Oc1cc(-c2ncc(C(F)(F)F)cc2Cl)c(F)cc1Cl", "note": "(stereo not shown) [methyl 2-[2-chloro-5-[3-chloro-5-(trifluoromethyl)-2-pyridyl]-4-fluoro-phenoxy]-2-methoxy-acetate]", "values": [{"measurement": "Herbicide injury, 0 to 100% phytotox rating", "setting": "construct AMATU_PPO2 L397Q_F420M, 50 g ai/ha + 1% (v/v) MSO", "value": 45, "unit": "%"}, {"measurement": "Herbicide injury, 0 to 100% phytotox rating", "setting": "construct AMATU_PPO2 L397Q_F420M, 100 g ai/ha + 1% (v/v) MSO", "value": 61, "unit": "%"}, {"measurement": "Herbicide injury, 0 to 100% phytotox rating", "setting": "construct AMATU_PPO2 L397Q_F420M, 200 g ai/ha + 1% (v/v) MSO", "value": 73, "unit": "%"}, {"measurement": "Herbicide injury, 0 to 100% phytotox rating", "setting": "construct AMATU_PPO2 L397Q_F420V, 50 g ai/ha + 1% (v/v) MSO", "value": 69, "unit": "%"}, {"measurement": "Herbicide injury, 0 to 100% phytotox rating", "setting": "construct AMATU_PPO2 L397Q_F420V, 100 g ai/ha + 1% (v/v) MSO", "value": 66, "unit": "%"}, {"measurement": "Herbicide injury, 0 to 100% phytotox rating", "setting": "construct AMATU_PPO2 L397Q_F420V, 200 g ai/ha + 1% (v/v) MSO", "value": 83, "unit": "%"}, {"measurement": "Herbicide injury, 0 to 100% phytotox rating", "setting": "construct AMATU_PPO2 R128A_F420V, 50 g ai/ha + 1% (v/v) MSO", "value": 51, "unit": "%"}, {"measurement": "Herbicide injury, 0 to 100% phytotox rating", "setting": "construct AMATU_PPO2 R128A_F420V, 100 g ai/ha + 1% (v/v) MSO", "value": 69, "unit": "%"}, {"measurement": "Herbicide injury, 0 to 100% phytotox rating", "setting": "construct AMATU_PPO2 R128A_F420V, 150 g ai/ha + 1% (v/v) MSO", "value": 73, "unit": "%"}, {"measurement": "Herbicide injury, 0 to 100% phytotox rating", "setting": "construct AMATU_PPO2 R128I_F420V, 50 g ai/ha + 1% (v/v) MSO", "value": 64, "unit": "%"}, {"measurement": "Herbicide injury, 0 to 100% phytotox rating", "setting": "construct AMATU_PPO2 R128I_F420V, 100 g ai/ha + 1% (v/v) MSO", "value": 66, "unit": "%"}, {"measurement": "Herbicide injury, 0 to 100% phytotox rating", "setting": "construct AMATU_PPO2 R128I_F420V, 200 g ai/ha + 1% (v/v) MSO", "value": 80, "unit": "%"}, {"measurement": "Herbicide injury, 0 to 100% phytotox rating", "setting": "construct AMATU_PPO2 R128L_F420L, 50 g ai/ha + 1% (v/v) MSO", "value": 18, "unit": "%"}, {"measurement": "Herbicide injury, 0 to 100% phytotox rating", "setting": "construct AMATU_PPO2 R128L_F420L, 100 g ai/ha + 1% (v/v) MSO", "value": 30, "unit": "%"}, {"measurement": "Herbicide injury, 0 to 100% phytotox rating", "setting": "construct AMATU_PPO2 R128L_F420L, 200 g ai/ha + 1% (v/v) MSO", "value": 56, "unit": "%"}, {"measurement": "Herbicide injury, 0 to 100% phytotox rating", "setting": "construct AMATU_PPO2 R128M_F420I, 50 g ai/ha + 1% (v/v) MSO", "value": 63, "unit": "%"}, {"measurement": "Herbicide injury, 0 to 100% phytotox rating", "setting": "construct AMATU_PPO2 R128M_F420I, 100 g ai/ha + 1% (v/v) MSO", "value": 83, "unit": "%"}, {"measurement": "Herbicide injury, 0 to 100% phytotox rating", "setting": "construct AMATU_PPO2 R128M_F420I, 200 g ai/ha + 1% (v/v) MSO", "value": 91, "unit": "%"}, {"measurement": "Herbicide injury, 0 to 100% phytotox rating", "setting": "construct AMATU_PPO2 R128M_F420L, 50 g ai/ha + 1% (v/v) MSO", "value": 30, "unit": "%"}, {"measurement": "Herbicide injury, 0 to 100% phytotox rating", "setting": "construct AMATU_PPO2 R128M_F420L, 100 g ai/ha + 1% (v/v) MSO", "value": 60, "unit": "%"}, {"measurement": "Herbicide injury, 0 to 100% phytotox rating", "setting": "construct AMATU_PPO2 R128M_F420L, 200 g ai/ha + 1% (v/v) MSO", "value": 73, "unit": "%"}, {"measurement": "Herbicide injury, 0 to 100% phytotox rating", "setting": "construct AMATU_PPO2 R128M_F420M, 50 g ai/ha + 1% (v/v) MSO", "value": 100, "unit": "%"}, {"measurement": "Herbicide injury, 0 to 100% phytotox rating", "setting": "construct AMATU_PPO2 R128M_F420M, 100 g ai/ha + 1% (v/v) MSO", "value": 85, "unit": "%"}, {"measurement": "Herbicide injury, 0 to 100% phytotox rating", "setting": "construct AMATU_PPO2 R128M_F420M, 200 g ai/ha + 1% (v/v) MSO", "value": 100, "unit": "%"}, {"measurement": "Herbicide injury, 0 to 100% phytotox rating", "setting": "construct AMATU_PPO2 R128M_F420V, 50 g ai/ha + 1% (v/v) MSO", "value": 64, "unit": "%"}, {"measurement": "Herbicide injury, 0 to 100% phytotox rating", "setting": "construct AMATU_PPO2 R128M_F420V, 100 g ai/ha + 1% (v/v) MSO", "value": 75, "unit": "%"}, {"measurement": "Herbicide injury, 0 to 100% phytotox rating", "setting": "construct AMATU_PPO2 R128M_F420V, 200 g ai/ha + 1% (v/v) MSO", "value": 93, "unit": "%"}, {"measurement": "Herbicide injury, 0 to 100% phytotox rating", "setting": "construct Arabidopsis PPO1 S305L_Y426M, 50 g ai/ha + 1% (v/v) MSO", "value": 49, "unit": "%"}, {"measurement": "Herbicide injury, 0 to 100% phytotox rating", "setting": "construct Arabidopsis PPO1 S305L_Y426M, 100 g ai/ha + 1% (v/v) MSO", "value": 100, "unit": "%"}, {"measurement": "Herbicide injury, 0 to 100% phytotox rating", "setting": "construct Arabidopsis PPO1 S305L_Y426M, 150 g ai/ha + 1% (v/v) MSO", "value": 100, "unit": "%"}, {"measurement": "Herbicide injury, 0 to 100% phytotox rating", "setting": "construct CHLSP_PPO_wt_tpFNR (CHLSP_PPO SEQ ID NO: 256), 50 g ai/ha + 1% (v/v) MSO", "value": 91, "unit": "%"}, {"measurement": "Herbicide injury, 0 to 100% phytotox rating", "setting": "construct CHLSP_PPO_wt_tpFNR (CHLSP_PPO SEQ ID NO: 256), 100 g ai/ha + 1% (v/v) MSO", "value": 97, "unit": "%"}, {"measurement": "Herbicide injury, 0 to 100% phytotox rating", "setting": "construct CHLSP_PPO_wt_tpFNR (CHLSP_PPO SEQ ID NO: 256), 200 g ai/ha + 1% (v/v) MSO", "value": 95, "unit": "%"}, {"measurement": "Herbicide injury, 0 to 100% phytotox rating", "setting": "construct OPITE_PPO_wt_tpFNR (OPITE_PPO SEQ ID NO: 249), 50 g ai/ha + 1% (v/v) MSO", "value": 100, "unit": "%"}, {"measurement": "Herbicide injury, 0 to 100% phytotox rating", "setting": "construct OPITE_PPO_wt_tpFNR (OPITE_PPO SEQ ID NO: 249), 100 g ai/ha + 1% (v/v) MSO", "value": 100, "unit": "%"}, {"measurement": "Herbicide injury, 0 to 100% phytotox rating", "setting": "construct OPITE_PPO_wt_tpFNR (OPITE_PPO SEQ ID NO: 249), 200 g ai/ha + 1% (v/v) MSO", "value": 100, "unit": "%"}, {"measurement": "Herbicide injury, 0 to 100% phytotox rating", "setting": "construct hemG_tp_FNR (SEQ ID NO: 245), 50 g ai/ha + 1% (v/v) MSO", "value": 96, "unit": "%"}, {"measurement": "Herbicide injury, 0 to 100% phytotox rating", "setting": "construct hemG_tp_FNR (SEQ ID NO: 245), 100 g ai/ha + 1% (v/v) MSO", "value": 100, "unit": "%"}, {"measurement": "Herbicide injury, 0 to 100% phytotox rating", "setting": "construct hemG_tp_FNR (SEQ ID NO: 245), 200 g ai/ha + 1% (v/v) MSO", "value": 99, "unit": "%"}, {"measurement": "Herbicide injury, 0 to 100% phytotox rating", "setting": "construct hemG_tp_long AMATU (SEQ ID NO: 246), 50 g ai/ha + 1% (v/v) MSO", "value": 68, "unit": "%"}, {"measurement": "Herbicide injury, 0 to 100% phytotox rating", "setting": "construct hemG_tp_long AMATU (SEQ ID NO: 246), 100 g ai/ha + 1% (v/v) MSO", "value": 75, "unit": "%"}, {"measurement": "Herbicide injury, 0 to 100% phytotox rating", "setting": "construct hemG_tp_long AMATU (SEQ ID NO: 246), 200 g ai/ha + 1% (v/v) MSO", "value": 79, "unit": "%"}, {"measurement": "Herbicide injury, 0 to 100% phytotox rating", "setting": "non transformed Arabidopsis, 50 g ai/ha + 1% (v/v) MSO", "value": 100, "unit": "%"}, {"measurement": "Herbicide injury, 0 to 100% phytotox rating", "setting": "non transformed Arabidopsis, 100 g ai/ha + 1% (v/v) MSO", "value": 100, "unit": "%"}, {"measurement": "Herbicide injury, 0 to 100% phytotox rating", "setting": "non transformed Arabidopsis, 150 g ai/ha + 1% (v/v) MSO", "value": 100, "unit": "%"}, {"measurement": "Herbicide injury, 0 to 100% phytotox rating", "setting": "non transformed Arabidopsis, 200 g ai/ha + 1% (v/v) MSO", "value": 100, "unit": "%"}]}
